Blank lines part the entries; values can stand above or below the compound they belong to.
What was measured:
Format in all cases: cell-based, rat
[1] = system: SOX9; assay: SOX9 luciferase reporter assay in transfected astrocytes; conditions: for inhibition of SOX9 activity (luciferase assay): 24 h; for luciferase reporter activity (SOX9 activity) / concentration at which the decrease in luciferase reporter activity is optimized / maximal: cultured rat astrocytes; for luciferase reporter activity (SOX9 activity) / reduction of Sox9 activity as indicated by luciferase expression / concentration at which the decrease in luciferase reporter activity is optimized / maximal: 24 h treatment; for luciferase reporter activity (SOX9 activity): various concentrations (FIG. 5); for reduction of Sox9 activity as indicated by luciferase expression: concentration not stated (FIG. 5)
Source text: Cultures early after plating bear characteristics of immature and reactive astroctyes associated with acute damage. In this assay, primary astrocytes are transfected with a SOX9 reporter construct that consists of 4 repeats of the SOX9 binding site coupled to the mouse Col2a1 minimal promoter cloned upstream of a luciferase gene in the plasmid pGL4, as previously described in WO 2008/049226. After normalization for transfection efficiency, SOX9 activity can be monitored in transfected astrocytes by luciferase activity. Cells transfected with the SOX9 reporter construct were cultured in the presence and absence of potential inhibitors for 24 hours at which time the cells were lysed and luciferase levels measured. Compounds that reduced the levels of luciferase activity relative to control wells were considered as positive “hits”. In a secondary screen, false positives that cause a reduction in luciferase activity due to effects on cell viability, were eliminated using a cell viability assay (CellTiter-Flour—Promega). Subsequent to secondary screening, the “hits” were evaluated for their affect on SOX9 target gene expression by Q-PCR studies in primary astrocytes.
The utility of calmodulin antagonists (inhibitor) to decrease SOX9 target gene expression was evaluated in cultured rat astrocytes transfected with pGL4.1 4×48 Col2a1 prepared as described in Example 1. This plasmid contains 4-48 bp SOX9-binding sites from the Col2A1 enhancer which promote luciferase reporter gene expression in cells where SOX9 is active i.e. in the nucleus. The day after transfection, cells were treated for 24 h with inhibitor in concentrations as described below and in FIG. 5 before the luciferase assay was performed.
In this example, the potential of compounds that modulate calcium channels to modulate SOX9 activity is tested. The compounds were evaluated in cultured rat astrocytes transfected with pGL4.1 4×48 Col2a1. The day after transfection, cells were treated for 24 h with selected inhibitors before the luciferase assay was performed.
Antagonists to TRPV4 cation channel were tested to determine their ability to decrease the activity of SOX9 in astrocytes. The effect of TRPV4 antagonists on SOX9 function was evaluated in cultured rat astrocytes transfected with pGL4.1 4×48 Col2a1. The day after transfection, cells were treated for 24 h with 2-APB (100 μM) or ruthenium red (10 μM) before the luciferase assay was performed. […] With respect to SOX9 target genes, Q-PCR analysis of aged primary astrocyte cultures was performed to determine the impact of the TRPV4 antagonists on SOX9. […] Collagen IV is a significant scarring extracellular matrix produced by astrocytes and contributing to the inhibitory properties of the glial scar.

[2] = system: SOX9 target genes; assay: Q-PCR of SOX9 target gene expression in aged primary astrocyte cultures; set-up: reduction of XT-1 expression / reduction of HAPLN1 expression / reduction of aggrecan expression / reduction of Col2a expression / reduction of Col4a expression: concentration or dose not given beside the values
Source text: Another approach to modulating the capacity of calmodulin to transport SOX9 into the nucleus is via competitive inhibition of calmodulin binding. To that effect, a novel peptide (SOX-CAL) was generated to specifically block the calmodulin SOX9 binding site. The SOX-CAL peptide sequence, […] (SEQ ID NO.8), corresponds with the calmodulin binding sequence in SOX9. To ensure the peptide's entry into the cell, it was synthesized fused to the protein transduction domain of the HIV-1 Tat protein. […] This analysis was performed in contrast to the control FLAG-TAT peptide.
Antagonists to TRPV4 cation channel were tested to determine their ability to decrease the activity of SOX9 in astrocytes. The effect of TRPV4 antagonists on SOX9 function was evaluated in cultured rat astrocytes transfected with pGL4.1 4×48 Col2a1. The day after transfection, cells were treated for 24 h with 2-APB (100 μM) or ruthenium red (10 μM) before the luciferase assay was performed. The broad-spectrum transient receptor potential (TRP) channel antagonist 2-APB inhibited SOX9 activity by ˜70%, while the vanniloid subfamily-specific TRP antagonist ruthenium red inhibited SOX9 activity by ˜25%. With respect to SOX9 target genes, Q-PCR analysis of aged primary astrocyte cultures was performed to determine the impact of the TRPV4 antagonists on SOX9. Treatment with ruthenium red specifically reduces aggrecan and Col4a expression by 40% and 50%, respectively (FIG. 6B), while 2-APB reduces XT-1, HAPLN1, aggrecan, Col2a, and Col4a by 50%, 70%, 80%, 50%, and 60% respectively (FIG. 6B, C), in rat primary astrocytes after a 48 hour exposure (n=3). […] Based on the role that the TRP channels serve in modulating calcium levels, and therefore calmodulin activity, the effect of the TRP channel blockers on SOX9 activity appears to be indirect.

[3] = system: Collagen IV; assay: Western blotting of astrocyte culture protein extract probed with anti-collagen IV; conditions: Cal-TAT treated vs control cultures
[4] = rat primary astrocytes, 48 hour exposure, n=3
[5] = primary astrocyte cultures, in contrast to control FLAG-TAT peptide (FIG. 7C)

inhibition of SOX9 activity (luciferase assay) ([1]; 100 μM): ~70%
Compound: NCCOB(c1ccccc1)c1ccccc1 [2-APB]
luciferase reporter activity (SOX9 activity) [1]: significantly reduce luciferase production | reduction of Col2a expression [2, 4]: 50% | reduction of Col4a expression [2, 4]: 60% | reduction of HAPLN1 expression [2, 4]: 70% | reduction of XT-1 expression [2, 4]: 50% | reduction of aggrecan expression [2, 4]: 80%

Compound: Clc1ccc(C(c2ccc(Cl)cc2)n2cc[n+](CC(OCc3ccc(Cl)cc3Cl)c3ccc(Cl)cc3Cl)c2)cc1 (stereo not drawn) [Calmidazolium, calmidazolium]
reduction of Sox9 activity as indicated by luciferase expression [1]: approximately 20%

Compound: OCCN1CCN(CCCN2c3ccccc3Sc3ccc(C(F)(F)F)cc32)CC1 [Fluphenazine, fluphenazine]
luciferase reporter activity (SOX9 activity) [1]: dose dependent decrease in reporter activity

Compound: COc1ccc2cc1Oc1ccc(cc1)C[C@H]1c3cc(c(OC)cc3CCN1C)Oc1c(OC)c(OC)cc3c1[C@H](C2)N(C)CC3 [Tetrandine, Tetrandrine]
reduction of Sox9 activity as indicated by luciferase expression [1]: approximately 20%

concentration at which the decrease in luciferase reporter activity is optimized / maximal [1]: 50 µM
Compound: NCCCCCCNS(=O)(=O)c1cccc2ccccc12 [W5]
luciferase reporter activity (SOX9 activity) [1]: does dependent decreases in reporter activity

concentration at which the decrease in luciferase reporter activity is optimized / maximal [1]: 50 µM
Compound: NCCCCCCNS(=O)(=O)c1cccc2c(Cl)cccc12 [W7]
luciferase reporter activity (SOX9 activity) [1]: does dependent decreases in reporter activity

Compound: CC(COc1ccccc1)N(CCCl)Cc1ccccc1 (stereo not drawn) [phenoxybenzamine]
reduction of Sox9 activity as indicated by luciferase expression [1]: up to 80% | luciferase reporter activity (SOX9 activity) [1]: dose dependent inhibition of reporter activity at 20 and 50 uM

inhibition of SOX9 activity (luciferase assay) ([1]; 10 μM): ~25% | reduction of Sox9 activity as indicated by luciferase expression [1]: about 25%
Compound: N.N.N.N.N.N.N.N.N.N.N.N.N.N.[Cl-].[Cl-].[Cl-].[Cl-].[Cl-].[Cl-].[O-2].[O-2].[Ru+3].[Ru+3].[Ru+4] [ruthenium red]
luciferase reporter activity (SOX9 activity) [1]: significantly reduce luciferase production | reduction of Col4a expression [2, 4]: 50% | reduction of aggrecan expression [2, 4]: 40%

Compound: Cal-TAT: SOX-CAL peptide fused to the HIV-1 Tat transduction domain, one N-/C-terminal configuration (KRPMNAFMVWAQAARRKYGRKKRRQRRR)
expression of C4ST ([2]; 10 uM peptide, 48 hours): significantly reduced | expression of XT1 ([2]; 10 uM peptide, 48 hours): significantly reduced | Collagen 2A expression [2, 5]: significant reduction | GFAP expression [2, 5]: significant reduction | XT-1 expression [2, 5]: significant reduction | aggrecan expression [2, 5]: significant reduction | brevican expression [2, 5]: significant reduction | level of type IV collagen (Western blot) [3]: reduced level of type IV collagen

Compound: RRPMNAFMVWAQAARRK [SOX-CAL peptide]
SOX9 target genes expression ([2]; longer treatments (1 week)): even more profound reductions

Compound: TAT-Cal: SOX-CAL peptide fused to the HIV-1 Tat transduction domain, other N-/C-terminal configuration (YGRKKRRQRRRKRPMNAFMVWAQAARRK)
expression of C4ST ([2]; 10 uM peptide, 48 hours): significantly reduced | expression of Sox9 ([2]; 10 uM peptide, 48 hours): increased | expression of XT1 ([2]; 10 uM peptide, 48 hours): significantly reduced

Reference: US20130266663A1, “SOX9 INHIBITORS” (priority 2010, published 2013)
